Laboratory results published in publication PMC7188728, “A phase I study investigation of metabolism, and disposition of [^14C]-anlotinib after an oral administration in patients with advanced refractory solid tumors” (Cancer Chemotherapy and Pharmacology, 2020).
Counter-ions that a name gives are not always drawn.

Tests used:
[1] = test system: human cytochrome P450 2C9; parameters: method as in PMID 29441353; details: in vitro; read-out: Half maximum inhibitory concentration; cited from earlier work
[2] = Metabolite radio-profiling (LC-RAM, LC-MS/MS) of plasma, urine and feces; type: in vivo, human
Method: An equal volume of 2, 4, 8, 12, 24, and 96 h plasma sample was pooled by time-point across subject 03 ~ 06, to give six pooled plasma samples for metabolite profiling. An appropriate volume (3x, v/v) of acetonitrile was added to a portion of the pooled plasma sample, followed by vortexing ca. 2 min. After storage in a refrigerator for ca. 30 min, the mixture was centrifuged at ca. 10000 g at 4 °C for 10 min. The supernatant was then separated from the PES, which was suspended with water, followed by addition of methanol (2x, v/v) twice. The three extracts were combined and evaporated to dryness under a nitrogen stream by an N-Evap evaporator at room temperature. The residues were reconstituted with an appropriate volume of methanol:water (1:1, v/v) and centrifuged at ca. 10000 g at 4 ℃ for 10 min. The supernatant was subjected to HPLC radio-profiling.
Four pooled human urine samples (subject 03 ~ 06) were pooled from 0 to 432 h based on equal volume ratios from the individual patients across time intervals. In addition, three pooled urine samples (0–48, 48–120 and 360–432 h) (subjects 03–06) were prepared by pooling human urine samples across subjects and time points. Portion of the pooled urine sample was evaporated to a small volume under a nitrogen stream and extracted with methanol (3x, v/v) followed by centrifuged at ca. 10000 g at 4 ℃ for 10 min. The supernatant was reconstituted with an appropriate volume of methanol:water (1:1, v/v) and centrifuged at ca. 10000 g at 4 ℃ for 10 min. The supernatant was subjected to HPLC radio-profiling.
Four human fecal samples (0–432 h) were prepared by pooling feces from individual subjects (Subjects 03–06). In addition, three pooled human fecal samples (0–48, 48–120 and 360–432 h) were prepared by pooling feces samples across subjects and time points. The pooled fecal homogenate was extracted with methanol (3x, v/v) and the mixture was vortexed, and centrifuged at ca. 10000 g at 4 ℃ for 10 min. The supernatant was then separated from the PES, which was suspended with water, followed by addition of methanol twice. The three extracts were combined and evaporated to dryness under a nitrogen stream by an N-Evap evaporator at room temperature. The residues were reconstituted with an appropriate volume of methanol:water (1:1, v/v) and centrifuged at ca. 10000 g at 4 ℃ for 10 min prior to analysis.
HPLC coupled with radioactivity monitor (LC-RAM) was used to isolate and quantitate [^14C] anlotinib and its metabolites. The plasma and fecal extracts as well as urine supernatants were subjected to HPLC separation, fractionation, and eluent collection. The radioactivity in each fraction was monitored by solid scintillation counting using a Packard TopCount® NXT™ Microplate Counter. The radio-profiles were then reconstructed using ARC® Convert software. The peak area of each radioactivity peak/region was integrated using ARC® Evaluation software, and the percent distribution of each peak/region was calculated (%TRA for plasma or %Dose for urine and feces).
Metabolites were characterized and/or identified by LC–MS/MS in conjunction with on-line radioactivity detection. Structures of metabolites were proposed by interpretation of the mass spectral fragmentation pattern, as well as chromatographic behaviors and metabolic pathways.

[3] = Mass balance: excretion of total radioactivity in urine and feces; type: in vivo, human
Method: The urine samples were collected before orally administration and 0–2648 h after orally administration. […] In the process of collecting urine and feces samples of the six patients, because of the excretion particularity of the drug, the samples were not collected continuously every day, but once a week or every 10 days. In this case, the calculation of excretion rate during non-collected days was the multiplication of the first-day excretion rate after non-collected days by the number of non-collected days.
Levels of radioactivity in plasma, urine, and extracts of fecal samples were determined by mixing individual samples with 5 mL scintillation cocktail and determined by counting directly in a liquid scintillation counter (LSC). Blood, fecal homogenates, and post extraction solids were combusted with OX-501 Biological Sample Oxidizer, the ^14CO2 formed were trapped directly in 15 mL scintillation cocktail, followed by counting with LSC. Samples were assayed with a liquid scintillation counter for 5 min.

[4] = parameters: method as in PMID 29620050; details: rats and dogs; cited from earlier work

COc1cc2c(Oc3ccc4[nH]c(C)cc4c3F)ccnc2cc1OCC1(N)CC1 [anlotinib, 1-[[4-(4-fluoro-2-methyl-1H-indol-5-yloxy)-6-methoxyquinolin-7-yl]oxy]methyl) cyclopropanamine dihydrochloride]
IC50 [1]: 250 nM | Drug-related component in feces, % of the dose ([2]; feces, pooled 0–432 h, subjects 03–06, single oral 14.15 mg/120 μCi): 5.64 % of the dose | Drug-related component in human plasma (radio-profile) ([2]; pooled plasma 2–96 h, subjects 03–06, listed as parent drug): major drug-related component | Drug-related component in urine, % of the dose ([2]; urine, pooled 0–432 h, subjects 03–06, single oral 14.15 mg/120 μCi): 0.73 % of the dose | Recovery of radioactivity in feces, average ([3]; 0 ~ 2648 h, six patients): 48.52 % dose | Recovery of radioactivity in urine, average ([3]; 0 ~ 2648 h, six patients): 13.51 % dose | Total recovery rate of radioactivity (urine and feces), average ([3]; 0 ~ 2648 h, six patients): 62.03 % dose | Feces (% dose) ([3]; Subject 01, 0 ~ 2648 h): 50.73 % dose | Total recovery rate (% dose) ([3]; Subject 01, 0 ~ 2648 h): 66.24 % dose | Urine (% dose) ([3]; Subject 01, 0 ~ 2648 h): 15.51 % dose | Feces (% dose) ([3]; Subject 02, 0 ~ 2648 h): 42.51 % dose | Total recovery rate (% dose) ([3]; Subject 02, 0 ~ 2648 h): 60.96 % dose | Urine (% dose) ([3]; Subject 02, 0 ~ 2648 h): 18.45 % dose | Feces (% dose) ([3]; Subject 03, 0 ~ 2648 h): 38.93 % dose | Total recovery rate (% dose) ([3]; Subject 03, 0 ~ 2648 h): 50.92 % dose | Urine (% dose) ([3]; Subject 03, 0 ~ 2648 h): 11.99 % dose | Feces (% dose) ([3]; Subject 04, 0 ~ 2648 h): 56.80 % dose | Total recovery rate (% dose) ([3]; Subject 04, 0 ~ 2648 h): 69.09 % dose | Urine (% dose) ([3]; Subject 04, 0 ~ 2648 h): 12.29 % dose | Feces (% dose) ([3]; Subject 05, 0 ~ 2648 h): 59.44 % dose | Total recovery rate (% dose) ([3]; Subject 05, 0 ~ 2648 h): 71.86 % dose | Urine (% dose) ([3]; Subject 05, 0 ~ 2648 h): 12.42 % dose | Feces (% dose) ([3]; Subject 06, 0 ~ 2648 h): 42.69 % dose | Total recovery rate (% dose) ([3]; Subject 06, 0 ~ 2648 h): 53.08 % dose | Urine (% dose) ([3]; Subject 06, 0 ~ 2648 h): 10.39 % dose | Radioactive concentration in feces ([3]; after 404–432 h): 4876 DPM/ml | Radioactive concentration in urine ([3]; after 404–432 h): 279 DPM/ml | Absorption [4]: absorbed quickly | Membrane permeability [4]: good membrane permeability
